Eleven molecules from patent US20240270727A1, “NEW SUBSTITUTED PYRIDINES AS FUNGICIDE” (BASF SE, priority 2021, published 2024) can be followed below.

One assay concerns Septoria tritici. Nature of the assay: Comparative Example 1: activity against leaf blotch on wheat caused by Septoria tritici (microtiter plate). The assay is classed as cell-based. To be noted: 7 days after inoculation.
For a further assay, the system named is Leptosphaeria nodorum. Nature of the assay: Comparative Example 2: activity against wheat leaf spots caused by Leptosphaeria nodorum (microtiter plate). Particulars: 7 days after inoculation. The class given is cell-based.
A further assay relates to Ustilago maydis. Nature of the assay: Example 12: activity against Ustilago maydis in the microtiterplate test. To be noted: 31 ppm, DOB media pH 7.
A further assay concerns Botrytis cinerea. The assay can be described thus: Example 1: activity against the grey mold Botrytis cinerea in the microtiterplate test. To be noted: 31 ppm, 7 days after inoculation, relative to active compound-free control (100%). The assay is classed as cell-based.
The test system of another assay is Fusarium culmorum. The assay can be described thus: Example 2: activity against Fusarium culmorum in the microtiterplate test. To be noted: 31 ppm, 7 days after inoculation, relative to active compound-free control (100%).

Procedure for Fusarium culmorum: The stock solutions were mixed according to the ratio, pipetted onto a micro titer plate (MTP) and diluted with water to the stated concentrations. A spore suspension of Fusarium culmorum in an aqueous biomalt or yeast-bactopeptone-glycerine or DOB solution was then added. The plates were placed in a water vapor-saturated chamber at a temperature of 18° C. Using an absorption photometer, the MTPs were measured at 405 nm 7 days after the inoculation.
Procedure for Ustilago maydis: The stock solutions were mixed according to the ratio, pipetted onto a micro titer plate (MTP) and diluted with water to the stated concentrations. A spore suspension of the Ustilago maydis isolates in a DOB media (ph 7) was then added.

For the molecule `Cc1cc(C2=NCCOc3ccccc32)cnc1C` [D1, reference compound], the “Growth (%) at 125 pm SEPTTR” value in the assay with Septoria tritici amounted to 98%. In the assay on Leptosphaeria nodorum, the “Growth (%) at 8 pm LEPTNO” value is 45%.

Regarding `Cc1cc(C2=NC(C(C)(C)C)COc3ccccc32)cnc1C` (stereo not drawn) [Ex-1], the “growth of the pathogen” value with Ustilago maydis and with Botrytis cinerea was 0% each time.

Regarding `Cc1cc(C2=NCC(C)(C)Oc3ccccc32)cnc1C` [Ex-2], the “Growth (%) at 125 pm SEPTTR” value in the assay with Septoria tritici is 51%. Besides, the “growth of the pathogen” value with Fusarium culmorum is given as 1%; in the assay on Botrytis cinerea, 0%. Besides, the “Growth (%) at 8 pm LEPTNO” value in the assay on Leptosphaeria nodorum worked out at 4%.

As to `Cc1cc(C2=NC(C)(C)C(C)(C)Oc3ccccc32)cnc1C` [Ex-3], in the assay with Septoria tritici, the “Growth (%) at 125 pm SEPTTR” value amounted to 64%. Further, the “growth of the pathogen” value with Fusarium culmorum amounted to 1%; with Botrytis cinerea, 0%. In the assay with Leptosphaeria nodorum, the “Growth (%) at 8 pm LEPTNO” value was determined as 30%.

Regarding `Cc1cc(C2=NC(C)(C)C(C)(C)Oc3ccccc32)cnc1C(F)F` [Ex-4], the “growth of the pathogen” value with Botrytis cinerea is listed as 0%.

On to `Cc1cc(C2=NCC(C)(C)Oc3ccccc32)cnc1C(F)F` [Ex-8], for which the “growth of the pathogen” value with Botrytis cinerea was 0%.

Turning to `COCC1(C)Oc2ccccc2C(c2cnc(C)c(C)c2)=NC1(C)C` (stereo not drawn) [Ex-9], the “growth of the pathogen” value in the assay on Botrytis cinerea turned out to be 0%.

Consider `COCC1(C)Oc2ccccc2C(c2cnc(C(F)F)c(C)c2)=NC1(C)C` (stereo not drawn) [Ex-10], for which the “growth of the pathogen” value with Botrytis cinerea came out at 0%.

Turning to `Cc1cc(C2=NC(C)C(C)(C)Oc3ccccc32)cnc1C` (stereo not drawn) [Ex-11], the “Growth (%) at 125 pm SEPTTR” value with Septoria tritici was found to be 52%. Further, the “Growth (%) at 8 pm LEPTNO” value with Leptosphaeria nodorum is recorded as 6%. Moreover, in the assay with Botrytis cinerea, the “growth of the pathogen” value was 0%.

For `Cc1cc(C2=NC(C(C)(C)C)C(C)Oc3ccccc32)cnc1C` (stereo not drawn) [Ex-24], the “growth of the pathogen” value in the assay on Ustilago maydis amounted to 0%.

`Cc1cc(C2=NC(=O)C3(CC3)Oc3c(F)cccc32)cnc1C(F)F` [Ex-41]: the “growth of the pathogen” value in the assay with Ustilago maydis worked out at 0%.
